Measurements from US20220370445A1, “METHODS FOR ADMINISTERING (R)-N-[4-(1,4,5,6-TETRAHYDRO-6-OXO-3-PYRIDAZINYL)PHENYL]ACETAMIDE” (ORION CORPORATION, priority 2019, published 2022).
Where a name gives a salt, the structure may show the parent alone.

Experiments:
[1] = Bioavailability of compound (I) by ocular, intranasal or oromucosal administration vs i.v. in dogs; format: in vivo; conditions: Beagle dogs; for bioavailability: dog, plasma, n=6
Protocol: (§1) Bioavailability of compound (I) given by ocular (4 μg/kg), intranasal (4 μg/kg) or oromucosal dosing (5 μg/kg) was compared to 4 μg/kg intravenous (i.v.) administration in Beagle dogs.
The study was a crossover study with at least 6 days washout period between the treatment periods. The animals were fasted overnight before dosing by withdrawing the remaining feed (if any) at least 12 h before dosing. On dosing days, food was offered approximately at 4 h after dosing (after the 4 h blood sampling).
(§2) Composition of Formulation Example 1 was used for ocular administration, composition of Formulation Example 2 was used for intranasal administration and composition of Formulation Example 3 was used for oromucosal administration.
(§3) Ocular and intranasal doses were divided equally to both eyes or both nostrils. Oromucosal gel formulation was administered to buccal/gingival mucosa of the dog. The intravenous dose was administered in cephalic vein in slow i.v. bolus dosed within 30 seconds. Blood samples were collected into K2EDTA tubes over a 48 h period after each treatment at the following time points: predose, 2 min, 5 min, 10 min, 20 min, 30 min, 45 min, 1 h, 2 h, 4 h, 6 h, 8 h, 12 h, 24 h and 48 h post administration. Aliquots of plasma were prepared and stored frozen until analysis. Compound (I) concentration in plasma was determined using Liquid chromatography-triple quadrupole mass spectrometry. The lower limit of quantification for compound (I) in dog plasma was 0.1 ng/ml.

heart rate = assay: Effect of compound (I) alone or together with ivabradine on heart rate by oromucosal administration (telemetry); format: in vivo, Beagle dogs
Protocol: Male beagle dogs (n=3) were given a dose of compound (I) using oromucosal gel according to Formulation Example 3a alone (dosing period 1) or together with a dose of ivabradine using oromucosal gel according to Formulation Example 3c (dosing period 2). The dose of compound (I) was 18.5 μg/kg and the dose of ivabradine was 1 mg/kg (calculated as ivabradine base). Each dose was divided into two sites on gingival mucosa. The washout period between the dosing periods was at least 6 days. Heart rate of the animals was assesses at baseline and post-dosing using telemetry acquisition system.

[2] = in man; cited from earlier work
[3] = Local tolerance of compound (I) given by ocular, intranasal or oromucosal administration to dogs; format: in vivo; conditions: any administration route (ocular, intranasal, oromucosal), Beagle dogs
Protocol: Experiment 1. Bioavailability and Local Tolerance of Compound (I) Given by Ocular, Intranasal or Oromucosal Administration to Dogs.
as §1, §2, §3

[4] = Bioavailability of compound (I) given by oropharyngeal aspiration to rats vs i.v.; format: in vivo, Male Sprague Dawley rats; conditions: for bioavailability: male, Sprague Dawley, rat, plasma, other: oropharyngeal aspiration, read-out: bioavailability of oropharyngeal administration
Protocol: Oropharyngeal aspiration administration has been developed as an alternative technique for the inhaled delivery of medicaments to the lungs and provides a means to mimic human lung exposure of medicaments by inhalation (Hulland, K. et al., American Journal of Respiratory and Critical Care Medicine 2016, 193:A5928 and Barbayianni, I. et al., Frontiers of Medicine, September 2018, Vol 5, Article 269, 1-6).
Bioavailability of compound (I) given by oropharyngeal aspiration (dosing 10 or 20 μg/kg) was compared to 10 μg/kg intravenous (i.v.) administration in Male Sprague Dawley rats.
Composition for oropharyngeal dosing was as follows:
The oropharyngeal dose was administered to animals which were lightly anaesthetized by isoflurane inhalation. The animals were placed on a vertical stand the top teeth hooked over a rubber band to open the mouth. The 100 μl dose was dispensed by positive displacement pipette at the back of the throat of the animal while holding the tongue to prevent swallowing and nose held to encourage breathing through the mouth for (at least) 3 breaths. The nose released but tongue continually held for an additional couple of breaths to ensure solution deposited in the lungs and not swallowed. All animals recovered consciousness post dose.
The intravenous dose was administered as a slow bolus injection over 30 seconds via the lateral tail vein.
Blood samples were collected into a K2EDTA tube such as to obtain a sample after 5 min, 15 min, 30 min, 1 h, 3 h, 5 h, 8 h, 12 h, 24 h and 48 h post administration.
Aliquots of plasma were prepared and stored frozen until analysis. Compound (I) concentration in plasma was determined using a liquid chromatography-tandem mass spectrometry (LC-MS/MS). The lower limit of quantification for compound (I) in rat plasma was 0.02 ng/ml.

Row | Compound | bioavailability ([1]; other: intranasal (drops), 4 ug/kg, intranasal drops 4 μg/kg vs 4 μg/kg i.v.) [%] | bioavailability ([1]; other: ocular (eye drops), 4 ug/kg, eye drops, ocular 4 μg/kg vs 4 μg/kg i.v.) [%] | bioavailability ([1]; other: oromucosal (gel to buccal/gingival mucosa), 5 ug/kg, oromucosal gel 5 μg/kg vs 4 μg/kg i.v.) [%] | absorption ([1]; ocular drops, intranasal drops or oromucosal gel) | heart rate after dosing (heart rate; oromucosal gel 18.5 μg/kg alone, male beagle dogs n=3, baseline 93±9 bpm) [bpm] | elimination half-life [2] | irritation (local tolerance) [3] | bioavailability ([4]; oropharyngeal 0.01 mg/kg vs 0.01 mg/kg i.v.) [%] | bioavailability ([4]; oropharyngeal 0.02 mg/kg vs 0.01 mg/kg i.v.) [%] | absorption ([4]; oropharyngeal route) | prevention of heart rate increase induced by compound (I) (heart rate; oromucosal 1 mg/kg concurrent with compound (I) 18.5 μg/kg oromucosal, beagle dogs)
1 | CC(=O)Nc1ccc(C2=NNC(=O)C[C@H]2C)cc1 [Compound (I), (R)—N-[4-(1,4,5,6-tetrahydro-4-methyl-6-oxo-3-pyridazinyl)phenyl]acetamide] | 82 | 67 | 78 | fast absorption comparable to intravenous administration | 167±8 | about 72 h | No significant irritation | 94.9 | 97.1 | fast absorption comparable to intravenous administration | 
2 | COc1cc2c(cc1OC)CC(=O)N(CCCN(C)C[C@H]1Cc3cc(OC)c(OC)cc31)CC2 [ivabradine hydrochloride, reference compound] |  |  |  |  |  |  |  |  |  |  | completely prevent the heart rate increase
